In patent US20070037830A1, “2-Adamantyl derivatives as p2X7 receptor antagonists” (ASTRAZENECA AB, priority 2003, published 2007):

Row | melting point | SMILES
1 | 206 to 208 °C | O=C(CC1C2CC3CC(C2)CC1C3)Nc1cccc2[nH]ccc12 (centres unmarked) [Example 2, 2-(2-Adamantyl)-N-1H-indol-4-ylacetamide]
2 | 193 to 196 °C | COc1ccc(C)c(NC(=O)CC2C3CC4CC(C3)CC2C4)c1 (centres unmarked) [Example 1, 2-(2-Adamantyl)-N-(5-methoxy-2-methylphenyl)acetamide]
